Holding throughout (type): biochemical
Experiment [1] concerns the target T1, α-synuclein seeded by E. coli CsgA (Homo sapiens, UniProt P37840).
T1 construct: the full-length gene for untagged human α-synuclein was inserted; made in house; host or cells: α-synuclein: E. coli BL21 (DE3); CsgA: E. coli NEB 3016 slyD::kan
Nature of the experiment: Thioflavin T cell-free assay of CsgA-seeded α-synuclein aggregation.

In experiment [2] the target is T2, E. coli CsgA (Escherichia coli, UniProt P28307).
T2 construct: 6xHis (C); made in house; host or cells: E. coli NEB 3016 slyD::kan
T2 sequence (P28307 23-151): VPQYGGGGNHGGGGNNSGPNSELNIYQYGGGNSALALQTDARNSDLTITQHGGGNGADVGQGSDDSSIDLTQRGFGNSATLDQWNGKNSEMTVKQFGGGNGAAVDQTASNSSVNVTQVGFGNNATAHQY
Put plainly: Thioflavin T cell-free assay of CsgA aggregation.

For experiment [3], the target named is T3, human α-synuclein (Homo sapiens, UniProt P37840).
T3 construct: the full-length gene for untagged human α-synuclein was inserted; made in house; host or cells: E. coli BL21 (DE3)
Nature of the experiment: Thioflavin T cell-free assay of α-synuclein aggregation. The following applies: α-synuclein 50 μM, compounds at 20-50 μM, data from 36 hours; for Inhibition of Aggregation, αSyn: ThT fluorescence, negative = potentiation.

Where [4] appears, read: read-out: Inhibition of Aggregation, CsgA-seeded αSyn.
The mark [5] stands for this setting: read-out: Inhibition of Aggregation, CsgA-seeded αSyn (compound activity range).
The mark [6] stands for this setting: read-out: Inhibition of Aggregation, CsgA.
The mark [7] stands for this setting: read-out: Inhibition of Aggregation, CsgA (compound activity range).

Where two headings read alike, the source gives them in different places.

By inhibition is commonly meant the relative decrease from the control value, in per cent. Regarding `O=C(Nc1sc2c(c1C(=O)Nc1cc(O)c(O)c(O)c1)CCCC2)c1cc(O)c(O)c(O)c1` [Compound 2, 2-(3,4,5-trihydroxybenzamido)-N-(3,4,5-trihydroxyphenyl)-4,5,6,7-tetrahydrobenzo[b]thiophene-3-carboxamide], the inhibition at 50 µM in experiment [1] (setting [4]) is 63%; in experiment [1] (setting [5]) it was more than 60%. Besides, the figures for the inhibition at 20 µM in experiment [2] (setting [6]) and in experiment [2] (setting [7]) were 45% and 30 to 60%, respectively. Besides, the “Inhibition of Aggregation, αSyn” value in experiment [3] was 93%. The “Inhibition of Aggregation, αSyn (compound activity range)” value (from here on “Inhibition … (compound activity range)”) in experiment [3] is “(+++) ((+++) is greater than 60% inhibition)”.

For the molecule `O=C(Nc1sc2c(c1C(=O)Nc1cc(O)cc(O)c1)CCCC2)c1cc(O)c(O)c(O)c1` [Compound 6, N-(3,5-dihydroxyphenyl)-2-(3,4,5-trihydroxybenzamido)-4,5,6,7-tetrahydrobenzo[b]thiophene-3-carboxamide], the inhibition at 50 µM is more than 90% in experiment [1] (setting [4]) and more than 60% in experiment [1] (setting [5]). Also, the inhibition at 20 µM is 40% in experiment [2] (setting [6]) and 30 to 60% in experiment [2] (setting [7]). The “Inhibition of Aggregation, αSyn” value in experiment [3] was found to be 36%. In addition, the “Inhibition … (compound activity range)” value in experiment [3] is on record as “(++) ((++) is between 30% to 60% inhibition)”.

`COc1cc(NC(=O)c2c(N)sc3c2CCCC3)cc(OC)c1OC` [Compound 14, 2-amino-N-(3,4,5-trimethoxyphenyl)-4,5,6,7-tetrahydrobenzo[b]thiophene-3-carboxamide]: in experiment [1] (setting [4]), the inhibition at 50 µM amounted to 74%. The inhibition at 50 µM in experiment [1] (setting [5]) was more than 60%. In experiment [3], the “Inhibition of Aggregation, αSyn” value was 3% and the “Inhibition … (compound activity range)” value was “(−) ((−) is between −10% to 10% inhibition)”.

On to `COc1cc(NC(=O)c2c[nH]c3cc(OC)c(OC)c(OC)c3c2=O)cc(OC)c1OC` [Compound 19, 5,6,7-trimethoxy-4-oxo-N-(3,4,5-trimethoxyphenyl)-1,4-dihydroquinoline-3-carboxamide], for which the values for the inhibition at 50 µM in experiment [1] (setting [4]) and in experiment [1] (setting [5]) were 14% and 10 to 30%, respectively. Moreover, the inhibition at 20 µM in experiment [2] (setting [6]) was 18%; in experiment [2] (setting [7]), 10 to 30%. Moreover, in experiment [3], the “Inhibition of Aggregation, αSyn” value is listed as 29%. In experiment [3], the “Inhibition … (compound activity range)” value was “(+) ((+) is between 10% to 30% inhibition)”.

`O=C(Nc1cc(O)c(O)c(O)c1)c1c[nH]c2cc(O)c(O)c(O)c2c1=O` [Compound 20, 5,6,7-trihydroxy-4-oxo-N-(3,4,5-trihydroxyphenyl)-1,4-dihydroquinoline-3-carboxamide]: the inhibition at 50 µM in experiment [1] (setting [4]) is 11%; in experiment [1] (setting [5]), 10 to 30%. The inhibition at 20 µM is 61% in experiment [2] (setting [6]) and more than 60% in experiment [2] (setting [7]).

Turning to `COc1cc(OC(=O)c2c[nH]c3cc(OC)c(OC)c(OC)c3c2=O)cc(OC)c1OC` [Compound 23, 3,4,5-trimethoxyphenyl 5,6,7-trimethoxy-4-oxo-1,4-dihydroquinoline-3-carboxylate], the inhibition at 50 µM in experiment [1] (setting [4]) is -22%; in experiment [1] (setting [5]), less than -10%. Also, the inhibition at 20 µM is -4% in experiment [2] (setting [6]) and -10 to 10% in experiment [2] (setting [7]).

In the case of `COc1cc(OC)c2c(=O)c(C(=O)Oc3cc(OC)c(OC)c(OC)c3)c[nH]c2c1` [Compound 24, 3,4,5-trimethoxyphenyl 5,7-dimethoxy-4-oxo-1,4-dihydroquinoline-3-carboxylate], the values for the inhibition at 50 µM in experiment [1] (setting [4]) and in experiment [1] (setting [5]) were -27% and less than -10%, respectively. For the same molecule, the results for the inhibition at 20 µM in experiment [2] (setting [6]) and in experiment [2] (setting [7]) were -1% and -10 to 10%, respectively.

`COc1cc(OC)c2c(=O)c(C(=O)Nc3cccc(O)c3)c[nH]c2c1` [Compound 26, N-(3-hydroxyphenyl)-5,7-dimethoxy-4-oxo-1,4-dihydroquinoline-3-carboxamide]: the inhibition at 50 µM in experiment [1] (setting [4]) is less than -50%; in experiment [1] (setting [5]), less than -10%. For the same molecule, the inhibition at 20 µM in experiment [2] (setting [6]) is 8%; in experiment [2] (setting [7]) it was -10 to 10%. Besides, in experiment [3], the “Inhibition of Aggregation, αSyn” value is recorded as 24%. Further, the “Inhibition … (compound activity range)” value in experiment [3] is “(+) ((+) is between 10% to 30% inhibition)”.

As for `O=C(Nc1ccccc1)c1c[nH]c2cc(O)cc(O)c2c1=O` [Compound 27, 5,7-dihydroxy-4-oxo-N-phenyl-1,4-dihydroquinoline-3-carboxamide], the inhibition at 50 µM is 79% in experiment [1] (setting [4]) and more than 60% in experiment [1] (setting [5]). The inhibition at 20 µM was 44% in experiment [2] (setting [6]) and 30 to 60% in experiment [2] (setting [7]). In experiment [3], the “Inhibition of Aggregation, αSyn” value is recorded as 49%. Besides, the “Inhibition … (compound activity range)” value in experiment [3] is listed as “(++) ((++) is between 30% to 60% inhibition)”.

For `COc1cc2[nH]cc(C(=O)Nc3cccc(O)c3)c(=O)c2c(OC)c1OC` [Compound 28, N-(3-hydroxyphenyl)-5,6,7-trimethoxy-4-oxo-1,4-dihydroquinoline-3-carboxamide], the inhibition at 50 µM in experiment [1] (setting [4]) is less than -50%; in experiment [1] (setting [5]) it was less than -10%. In addition, the results for the inhibition at 20 µM in experiment [2] (setting [6]) and in experiment [2] (setting [7]) were -6% and -10 to 10%, respectively. Besides, in experiment [3], the “Inhibition of Aggregation, αSyn” value worked out at 20%. In addition, in experiment [3], the “Inhibition … (compound activity range)” value is recorded as “(+) ((+) is between 10% to 30% inhibition)”.

Turning to `O=C(Nc1cccc(O)c1)c1c[nH]c2cc(O)c(O)c(O)c2c1=O` [Compound 32, 5,6,7-trihydroxy-N-(3-hydroxyphenyl)-4-oxo-1,4-dihydroquinoline-3-carboxamide], the inhibition at 50 µM is more than 90% in experiment [1] (setting [4]) and more than 60% in experiment [1] (setting [5]). The inhibition at 20 µM is 53% in experiment [2] (setting [6]) and 30 to 60% in experiment [2] (setting [7]). In experiment [3], the “Inhibition of Aggregation, αSyn” value was 48%. The “Inhibition … (compound activity range)” value in experiment [3] is given as “(++) ((++) is between 30% to 60% inhibition)”.

Regarding `O=C(Nc1ccccc1)c1c[nH]c2cc(O)c(O)c(O)c2c1=O` [Compound 33, 5,6,7-trihydroxy-4-oxo-N-phenyl-1,4-dihydroquinoline-3-carboxamide], the inhibition at 20 µM in experiment [2] (setting [6]) is 59%. Further, the inhibition at 20 µM in experiment [2] (setting [7]) was 30 to 60%. For the same molecule, in experiment [3], the “Inhibition of Aggregation, αSyn” value is listed as 92% and the “Inhibition … (compound activity range)” value was “(+++) ((+++) is greater than 60% inhibition)”.

As to `COc1cc(NC(=O)c2c(-c3cc(OC)c(OC)c(OC)c3)[nH]c3cc(OC)c(OC)c(OC)c3c2=O)cc(OC)c1OC` [Compound 40, 5,6,7-trimethoxy-4-oxo-N,2-bis(3,4,5-trimethoxyphenyl)-1,4-dihydroquinoline-3-carboxamide], the inhibition at 20 µM in experiment [2] (setting [6]) turned out to be 15%. Besides, the inhibition at 20 µM in experiment [2] (setting [7]) was 10 to 30%. Also, in experiment [3], the “Inhibition of Aggregation, αSyn” value is −12% and the “Inhibition … (compound activity range)” value is given as “(−−) ((−−) is less than −10% inhibition)”.

Turning to `COc1cc(OC)c2c(=O)c(C(=O)Nc3ccccc3O)c[nH]c2c1` [Compound 41, N-(2-hydroxyphenyl)-5,7-dimethoxy-4-oxo-1,4-dihydroquinoline-3-carboxamide], the inhibition at 20 µM in experiment [2] (setting [6]) was found to be 18%. In experiment [2] (setting [7]), the inhibition at 20 µM lay within 10 to 30%. In experiment [3], the “Inhibition of Aggregation, αSyn” value was 17% and the “Inhibition … (compound activity range)” value is “(+) ((+) is between 10% to 30% inhibition)”.

`CN(C(=O)c1c[nH]c2cc(O)cc(O)c2c1=O)c1cc(O)c(O)c(O)c1` [Compound 42, 5,7-dihydroxy-N-methyl-4-oxo-N-(3,4,5-trihydroxyphenyl)-1,4-dihydroquinoline-3-carboxamide]: the values for the inhibition at 50 µM in experiment [1] (setting [4]) and in experiment [1] (setting [5]) were more than 90% and more than 60%, respectively. The inhibition at 20 µM in experiment [2] (setting [6]) was 114%; in experiment [2] (setting [7]), more than 60%. Also, the “Inhibition of Aggregation, αSyn” value in experiment [3] turned out to be 98%. For the same molecule, the “Inhibition … (compound activity range)” value in experiment [3] is “(+++) ((+++) is greater than 60% inhibition)”.

On to `O=C(Nc1ccccc1O)c1c[nH]c2cc(O)c(O)c(O)c2c1=O` [Compound 43, 5,6,7-trihydroxy-N-(2-hydroxyphenyl)-4-oxo-1,4-dihydroquinoline-3-carboxamide], for which the inhibition at 20 µM in experiment [2] (setting [6]) is 90%; in experiment [2] (setting [7]) it was more than 60%. Also, the “Inhibition of Aggregation, αSyn” value in experiment [3] turned out to be 63%. Further, the “Inhibition … (compound activity range)” value in experiment [3] is listed as “(++) ((++) is between 30% to 60% inhibition)”.

As to `O=C(Nc1cc(O)c(O)c(O)c1)c1c(-c2cc(O)c(O)c(O)c2)[nH]c2cc(O)c(O)c(O)c2c1=O` [Compound 44, 5,6,7-trihydroxy-4-oxo-N,2-bis(3,4,5-trihydroxyphenyl)-1,4-dihydroquinoline-3-carboxamide], the inhibition at 50 µM was more than 90% in experiment [1] (setting [4]) and more than 60% in experiment [1] (setting [5]). The inhibition at 20 µM in experiment [2] (setting [6]) is 64%; in experiment [2] (setting [7]) it was more than 60%. In addition, the “Inhibition of Aggregation, αSyn” value in experiment [3] is recorded as 98%. In addition, the “Inhibition … (compound activity range)” value in experiment [3] is “(+++) ((+++) is greater than 60% inhibition)”.

As to `O=C(Nc1cccc(O)c1)c1c[nH]c2cc(O)cc(O)c2c1=O` [Compound 48, 5,7-dihydroxy-N-(3-hydroxyphenyl)-4-oxo-1,4-dihydroquinoline-3-carboxamide], the inhibition at 50 µM in experiment [1] (setting [4]) was more than 90%; in experiment [1] (setting [5]) it was more than 60%. The inhibition at 20 µM was -2% in experiment [2] (setting [6]) and -10 to 10% in experiment [2] (setting [7]). Also, the “Inhibition of Aggregation, αSyn” value in experiment [3] stood at 37%. Further, the “Inhibition … (compound activity range)” value in experiment [3] is on record as “(++) ((++) is between 30% to 60% inhibition)”.
